Values quoted from earlier work as cited in patent US20140322324A1, “Composition For The Treatment Of Bacterial Infections” (priority 2011, published 2014).

Test system: Staphylococcus aureus (ATCC #14154 and #14775)
Details: two strains of Staphylococcus aureus (ATCC #14154 and #14775); for the combination: concentration of each

CCCCCCCCCCCC(=O)OCC(O)CO (stereo not shown) [monolaurin]
bactericidal concentration in culture: mirrored origanum oil
